Assay results from US5179088A, “1-Carba(dethia)cephalosporin antibiotics” (Eli Lilly and Company, priority 1990, dated 1993).

What was measured:
Type in all cases: cell-based
Set-up in all cases: unit not given here
Serratia = experiment: in vitro antibacterial activity, agar dilution (Serratia)
Experimental: (§1) *minimum inhibitory concentrations were determined by the Agardilution

Klebsiella = experiment: in vitro antibacterial activity, agar dilution (Klebsiella)
Experimental: as §1

Shig. sonn = experiment: in vitro antibacterial activity, agar dilution (Shig. sonn)
Experimental: as §1

Enterbacter Cloacea = experiment: in vitro antibacterial activity, agar dilution (Enterobacter cloacae)
Experimental: as §1

Pseudomonas = experiment: in vitro antibacterial activity, agar dilution (Pseudomonas)
Experimental: as §1

Streptococcus pn = experiment: in vitro antibacterial activity, agar dilution (Streptococcus pn); conditions: strain PARK
Experimental: as §1

Acin = experiment: in vitro antibacterial activity, agar dilution (Acin)
Experimental: as §1

E. coli = experiment: in vitro antibacterial activity, agar dilution (E. coli)
Experimental: as §1

Enterbacter Aerogenes = experiment: in vitro antibacterial activity, agar dilution (Enterobacter aerogenes)
Experimental: as §1

H. Influ. = experiment: in vitro antibacterial activity, agar dilution (H. influ.)
Experimental: as §1

Proteus morg = experiment: in vitro antibacterial activity, agar dilution (Proteus morg)
Experimental: as §1

Staphylococcus Aureus = experiment: in vitro antibacterial activity, agar dilution (Staphylococcus aureus)
Experimental: as §1

Streptococcus D = experiment: in vitro antibacterial activity, agar dilution (Streptococcus D)
Experimental: as §1

Staphylococcus Epi = experiment: in vitro antibacterial activity, agar dilution (Staphylococcus epi)
Experimental: as §1

Citro = experiment: in vitro antibacterial activity, agar dilution (Citro)
Experimental: as §1

Salmonella = experiment: in vitro antibacterial activity, agar dilution (Salmonella)
Experimental: as §1

Proteus rett = experiment: in vitro antibacterial activity, agar dilution (Proteus rett)
Experimental: as §1

Proteus incon = experiment: in vitro antibacterial activity, agar dilution (Proteus incon)
Experimental: as §1

Streptococcus A = experiment: in vitro antibacterial activity, agar dilution (Streptococcus A)
Experimental: as §1

Molecule `CO/N=C(\C(=O)N[C@@H]1C(=O)N2C(C(=O)O)=C(c3csc(-c4ccc(F)cc4)n3)CC[C@H]12)c1csc(N)n1` [Example 37, 7β-[(2-aminothiazol-4-yl)-Z-methoximinoacetylamino]-1-carba-(1-dethia)-3-[2-(4-fluorophenyl)thiazol-4-yl]-3-cephem-4-carboxylic acid] has a minimum inhibitory concentration (Serratia; strain SE3) of 8, a minimum inhibitory concentration (Serratia; strain X99) of 4 and a minimum inhibitory concentration (Klebsiella; strain KAE) of 2. The minimum inhibitory concentration (Klebsiella; strain X26) was “< .008”, the minimum inhibitory concentration (Klebsiella; strain X68) was “.5” and the minimum inhibitory concentration (Shig. sonn; strain N9) was 1. It also gave a minimum inhibitory concentration (Enterbacter Cloacea; strain 265A) of over 128, a minimum inhibitory concentration (Enterbacter Cloacea; strain EB5) of 2 and a minimum inhibitory concentration (Pseudomonas; strain PS18) of over 128. For the same molecule, the minimum inhibitory concentration (Pseudomonas; strain PS72) was over 128, the minimum inhibitory concentration (Pseudomonas; strain X239) was over 128 and the minimum inhibitory concentration (Pseudomonas; strain X528) was over 128. For the same molecule, the minimum inhibitory concentration (Streptococcus pn) was “< .008”, the minimum inhibitory concentration (Acin; strain AC12) was 128 and the minimum inhibitory concentration (E. coli; strain EC14) was “.5”. For the same molecule, the minimum inhibitory concentration (E. coli; strain N10) was 2, the minimum inhibitory concentration (Enterbacter Aerogenes; strain C32) was 2 and the minimum inhibitory concentration (Enterbacter Aerogenes; strain EB17) was 1. The minimum inhibitory concentration (H. Influ.; res, strain 76) was “.015”, the minimum inhibitory concentration (H. Influ.; sens, strain C.L.) was “.03” and the minimum inhibitory concentration (Proteus morg; strain PR15) was 2. For the same molecule, the minimum inhibitory concentration (Staphylococcus Aureus; strain S13E) was over 128, the minimum inhibitory concentration (Staphylococcus Aureus; strain V41) was 2 and the minimum inhibitory concentration (Staphylococcus Aureus; strain X1.1) was 1. It also gave a minimum inhibitory concentration (Staphylococcus Aureus; strain X400) of over 128, a minimum inhibitory concentration (Streptococcus D; strain 2041) of 4 and a minimum inhibitory concentration (Streptococcus D; strain X66) of over 128. For the same molecule, the minimum inhibitory concentration (Staphylococcus Epi; strain 222) was 2, the minimum inhibitory concentration (Staphylococcus Epi; strain 270) was 32 and the minimum inhibitory concentration (Citro; strain CF17) was 4. The minimum inhibitory concentration (Salmonella; strain 1335) was 2, the minimum inhibitory concentration (Salmonella; strain X514) was “.5” and the minimum inhibitory concentration (Proteus rett; strain C24) was “.125”. The minimum inhibitory concentration (Proteus incon; strain PR33) was “.125” and the minimum inhibitory concentration (Streptococcus A; strain C203) was “< .008”.

`CO/N=C(\C(=O)N[C@@H]1C(=O)N2C(C(=O)O)=C(c3csc(-c4ccco4)n3)CC[C@H]12)c1csc(N)n1` [Example 32] gave a minimum inhibitory concentration (Serratia; strain SE3) of 16, a minimum inhibitory concentration (Serratia; strain SE3, retest) of 16 and a minimum inhibitory concentration (Serratia; strain X99) of 14. It also gave a minimum inhibitory concentration (Serratia; strain X99, retest) of 2, a minimum inhibitory concentration (Klebsiella; strain KAE) of 1 and a minimum inhibitory concentration (Klebsiella; strain KAE, retest) of 16. For the same molecule, the minimum inhibitory concentration (Klebsiella; strain X26) was 8, the minimum inhibitory concentration (Klebsiella; strain X26, retest) was “< .008” and the minimum inhibitory concentration (Klebsiella; strain X68) was 1. For the same molecule, the minimum inhibitory concentration (Klebsiella; strain X68, retest) was 1, the minimum inhibitory concentration (Shig. sonn; strain N9) was 1 and the minimum inhibitory concentration (Shig. sonn; strain N9, retest) was 1. For the same molecule, the minimum inhibitory concentration (Enterbacter Cloacea; strain 265A) was 128, the minimum inhibitory concentration (Enterbacter Cloacea; strain 265A, retest) was 128 and the minimum inhibitory concentration (Enterbacter Cloacea; strain EB5) was 2. For the same molecule, the minimum inhibitory concentration (Enterbacter Cloacea; strain EB5, retest) was 2, the minimum inhibitory concentration (Pseudomonas; strain PS18) was over 128 and the minimum inhibitory concentration (Pseudomonas; strain PS18, retest) was over 128. For the same molecule, the minimum inhibitory concentration (Pseudomonas; strain PS72) was over 128, the minimum inhibitory concentration (Pseudomonas; strain PS72, retest) was over 128 and the minimum inhibitory concentration (Pseudomonas; strain X239) was over 128. The minimum inhibitory concentration (Pseudomonas; strain X239, retest) was over 128, the minimum inhibitory concentration (Pseudomonas; strain X528) was over 128 and the minimum inhibitory concentration (Pseudomonas; strain X528, retest) was over 128. For the same molecule, the minimum inhibitory concentration (Streptococcus pn) was “.03”, the minimum inhibitory concentration (Streptococcus pn; retest) was “.03” and the minimum inhibitory concentration (Acin; strain AC12) was 128. The minimum inhibitory concentration (Acin; strain AC12, retest) was 128, the minimum inhibitory concentration (E. coli; strain EC14) was 1 and the minimum inhibitory concentration (E. coli; strain EC14, retest) was “.5”. For the same molecule, the minimum inhibitory concentration (E. coli; strain N10) was 1, the minimum inhibitory concentration (E. coli; strain N10, retest) was 1 and the minimum inhibitory concentration (E. coli; strain TEM) was “< .008”. The minimum inhibitory concentration (E. coli; strain TEM, retest) was “.5”, the minimum inhibitory concentration (Enterbacter Aerogenes; strain C32) was 1 and the minimum inhibitory concentration (Enterbacter Aerogenes; strain C32, retest) was “.5”. The minimum inhibitory concentration (Enterbacter Aerogenes; strain EB17) was 1, the minimum inhibitory concentration (Enterbacter Aerogenes; strain EB17, retest) was 1 and the minimum inhibitory concentration (H. Influ.; res, strain 76) was “< .008”. The minimum inhibitory concentration (H. Influ.; res, strain 76, retest) was “.015”, the minimum inhibitory concentration (H. Influ.; sens, strain C.L.) was “.06” and the minimum inhibitory concentration (H. Influ.; sens, strain C.L., retest) was “.03”. It also gave a minimum inhibitory concentration (Proteus morg; strain PR15) of 2, a minimum inhibitory concentration (Proteus morg; strain PR15, retest) of 2 and a minimum inhibitory concentration (Staphylococcus Aureus; strain S13E) of 128. For the same molecule, the minimum inhibitory concentration (Staphylococcus Aureus; strain S13E, retest) was 128, the minimum inhibitory concentration (Staphylococcus Aureus; strain V41) was 8 and the minimum inhibitory concentration (Staphylococcus Aureus; strain V41, retest) was 4. It also gave a minimum inhibitory concentration (Staphylococcus Aureus; strain X1.1) of 4, a minimum inhibitory concentration (Staphylococcus Aureus; strain X1.1, retest) of 2 and a minimum inhibitory concentration (Staphylococcus Aureus; strain X400) of over 128. The minimum inhibitory concentration (Staphylococcus Aureus; strain X400, retest) was over 128, the minimum inhibitory concentration (Streptococcus D; strain 2041) was 16 and the minimum inhibitory concentration (Streptococcus D; strain 2041, retest) was 16. The minimum inhibitory concentration (Streptococcus D; strain X66) was over 128, the minimum inhibitory concentration (Streptococcus D; strain X66, retest) was over 128 and the minimum inhibitory concentration (Staphylococcus Epi; strain 222) was 4. The minimum inhibitory concentration (Staphylococcus Epi; strain 222, retest) was 4, the minimum inhibitory concentration (Staphylococcus Epi; strain 270) was 16 and the minimum inhibitory concentration (Staphylococcus Epi; strain 270, retest) was 8. For the same molecule, the minimum inhibitory concentration (Citro; strain CF17) was “.5”, the minimum inhibitory concentration (Citro; strain CF17, retest) was 1 and the minimum inhibitory concentration (Salmonella; strain 1335) was 4. It also gave a minimum inhibitory concentration (Salmonella; strain 1335, retest) of 2, a minimum inhibitory concentration (Salmonella; strain X514) of 1 and a minimum inhibitory concentration (Salmonella; strain X514, retest) of 1. The minimum inhibitory concentration (Proteus rett; strain C24) was “.5”, the minimum inhibitory concentration (Proteus rett; strain C24, retest) was “.5” and the minimum inhibitory concentration (Proteus incon; strain PR33) was “.5”. For the same molecule, the minimum inhibitory concentration (Proteus incon; strain PR33, retest) was “.25”, the minimum inhibitory concentration (Streptococcus A; strain C203) was “.015” and the minimum inhibitory concentration (Streptococcus A; strain C203, retest) was “.015”.

`CON=C(C(=O)NC1C(=O)N2C(C(=O)[O-])=C(c3csc(-c4ccc[n+](C)c4)n3)CCC12)c1csc(N)n1` (stereo not drawn) [Example 34, 7β-[(2-aminothiazol-4-yl)-Z-methoximinoacetylamino]-1-carba-(1-dethia)-3-[2-(1-methyl-3-pyridyl)thiazol-4-yl]-3-cephem-4-carboxylic acid] was tested, and the minimum inhibitory concentration (Serratia; strain SE3) was “.125”, the minimum inhibitory concentration (Serratia; strain X99) was “.06” and the minimum inhibitory concentration (Klebsiella; strain KAE) was “.25”. For the same molecule, the minimum inhibitory concentration (Klebsiella; strain X26) was “< .008”, the minimum inhibitory concentration (Klebsiella; strain X68) was “.06” and the minimum inhibitory concentration (Shig. sonn; strain N9) was “.06”. The minimum inhibitory concentration (Enterbacter Cloacea; strain 265A) was 4, the minimum inhibitory concentration (Enterbacter Cloacea; strain EB5) was “.125” and the minimum inhibitory concentration (Streptococcus pn) was “.015”. The minimum inhibitory concentration (Acin; strain AC12) was 128, the minimum inhibitory concentration (E. coli; strain EC14) was “.015” and the minimum inhibitory concentration (E. coli; strain N10) was “.03”. For the same molecule, the minimum inhibitory concentration (Enterbacter Aerogenes; strain C32) was “.03”, the minimum inhibitory concentration (Enterbacter Aerogenes; strain EB17) was “.03” and the minimum inhibitory concentration (H. Influ.; res, strain 76) was “.015”. For the same molecule, the minimum inhibitory concentration (H. Influ.; sens, strain C.L.) was “.015”, the minimum inhibitory concentration (Proteus morg; strain PR15) was “.06” and the minimum inhibitory concentration (Staphylococcus Aureus; strain S13E) was over 128. For the same molecule, the minimum inhibitory concentration (Staphylococcus Aureus; strain V41) was 8, the minimum inhibitory concentration (Staphylococcus Aureus; strain X1.1) was 1 and the minimum inhibitory concentration (Staphylococcus Aureus; strain X400) was 128. It also gave a minimum inhibitory concentration (Streptococcus D; strain 2041) of 128, a minimum inhibitory concentration (Streptococcus D; strain X66) of over 128 and a minimum inhibitory concentration (Staphylococcus Epi; strain 222) of 4. For the same molecule, the minimum inhibitory concentration (Staphylococcus Epi; strain 270) was 16, the minimum inhibitory concentration (Citro; strain CF17) was “.015” and the minimum inhibitory concentration (Salmonella; strain 1335) was “.06”. The minimum inhibitory concentration (Salmonella; strain X514) was “.015”, the minimum inhibitory concentration (Proteus rett; strain C24) was “.03” and the minimum inhibitory concentration (Proteus incon; strain PR33) was “.03”. For the same molecule, the minimum inhibitory concentration (Streptococcus A; strain C203) was “.015”.

In the case of `CO/N=C(\C(=O)N[C@@H]1C(=O)N2C(C(=O)O)=C(c3csc(-c4ccc([N+](=O)[O-])cc4)n3)CC[C@H]12)c1csc(N)n1` [Example 35, Sodium 7β-[(2-aminothiazol-4-yl)-Z-methoximinoacetylamino]-1-carba-(1-dethia)-3-[2-(4-nitrophenyl)thiazol-4-yl]-3-cephem-4-carboxylate], the minimum inhibitory concentration (Serratia; strain SE3) is reported as 4, the minimum inhibitory concentration (Serratia; strain X99) is reported as 4 and the minimum inhibitory concentration (Klebsiella; strain KAE) is reported as “.5”. The minimum inhibitory concentration (Klebsiella; strain X26) was “< .008”, the minimum inhibitory concentration (Klebsiella; strain X68) was 1 and the minimum inhibitory concentration (Shig. sonn; strain N9) was “.5”. For the same molecule, the minimum inhibitory concentration (Enterbacter Cloacea; strain 265A) was 16, the minimum inhibitory concentration (Enterbacter Cloacea; strain EB5) was 1 and the minimum inhibitory concentration (Streptococcus pn) was “< .008”. The minimum inhibitory concentration (Acin; strain AC12) was 64, the minimum inhibitory concentration (E. coli; strain EC14) was “.5” and the minimum inhibitory concentration (E. coli; strain N10) was 1. The minimum inhibitory concentration (E. coli; strain TEM) was “.5”, the minimum inhibitory concentration (Enterbacter Aerogenes; strain C32) was “.5” and the minimum inhibitory concentration (Enterbacter Aerogenes; strain EB17) was 1. For the same molecule, the minimum inhibitory concentration (H. Influ.; res, strain 76) was “.015”, the minimum inhibitory concentration (H. Influ.; sens, strain C.L.) was “.03” and the minimum inhibitory concentration (Proteus morg; strain PR15) was “.5”. For the same molecule, the minimum inhibitory concentration (Staphylococcus Aureus; strain S13E) was 32, the minimum inhibitory concentration (Staphylococcus Aureus; strain V41) was 2 and the minimum inhibitory concentration (Staphylococcus Aureus; strain X1.1) was “.5”. It also gave a minimum inhibitory concentration (Staphylococcus Aureus; strain X400) of over 128, a minimum inhibitory concentration (Streptococcus D; strain 2041) of 4 and a minimum inhibitory concentration (Streptococcus D; strain X66) of over 128. The minimum inhibitory concentration (Staphylococcus Epi; strain 222) was 2, the minimum inhibitory concentration (Staphylococcus Epi; strain 270) was 4 and the minimum inhibitory concentration (Citro; strain CF17) was 2. For the same molecule, the minimum inhibitory concentration (Salmonella; strain 1335) was 4, the minimum inhibitory concentration (Salmonella; strain X514) was 1 and the minimum inhibitory concentration (Proteus rett; strain C24) was “.25”. For the same molecule, the minimum inhibitory concentration (Proteus incon; strain PR33) was “.25” and the minimum inhibitory concentration (Streptococcus A; strain C203) was “< .008”.
